Assays:
Aminopeptidase N = target: T1, Aminopeptidase N (Sus scrofa, UniProt P15145)
T1 sequence (P15145 whole entry): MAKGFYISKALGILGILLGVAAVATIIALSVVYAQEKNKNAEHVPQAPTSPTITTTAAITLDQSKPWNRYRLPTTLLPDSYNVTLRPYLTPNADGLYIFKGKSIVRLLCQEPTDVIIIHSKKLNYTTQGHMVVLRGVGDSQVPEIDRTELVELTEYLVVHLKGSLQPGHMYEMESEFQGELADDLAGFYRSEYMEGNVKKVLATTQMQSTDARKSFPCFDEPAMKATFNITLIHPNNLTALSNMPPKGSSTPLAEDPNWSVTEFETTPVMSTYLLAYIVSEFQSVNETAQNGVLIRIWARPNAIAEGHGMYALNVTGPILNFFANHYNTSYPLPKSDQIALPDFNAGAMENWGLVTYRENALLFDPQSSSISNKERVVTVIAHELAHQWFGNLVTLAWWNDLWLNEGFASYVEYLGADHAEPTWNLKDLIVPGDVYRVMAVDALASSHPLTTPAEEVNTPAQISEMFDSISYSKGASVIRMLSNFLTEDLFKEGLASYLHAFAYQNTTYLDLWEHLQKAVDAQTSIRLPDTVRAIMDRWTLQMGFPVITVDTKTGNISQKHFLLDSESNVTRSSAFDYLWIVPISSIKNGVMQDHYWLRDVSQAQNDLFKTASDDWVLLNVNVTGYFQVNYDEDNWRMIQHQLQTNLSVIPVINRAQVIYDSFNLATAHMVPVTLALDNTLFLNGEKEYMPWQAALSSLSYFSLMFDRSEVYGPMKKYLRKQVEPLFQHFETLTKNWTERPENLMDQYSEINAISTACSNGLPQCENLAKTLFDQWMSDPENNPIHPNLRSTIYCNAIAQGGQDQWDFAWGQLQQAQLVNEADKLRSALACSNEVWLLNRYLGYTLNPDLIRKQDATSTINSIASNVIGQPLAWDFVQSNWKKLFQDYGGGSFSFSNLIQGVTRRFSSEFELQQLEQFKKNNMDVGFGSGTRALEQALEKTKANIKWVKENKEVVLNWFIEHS
Description: Binding affinity against aminopeptidase N from pig kidney

Glutamyl aminopeptidase = Glutamyl aminopeptidase (Homo sapiens, UniProt Q07075); test: Binding affinity against recombinant Aminopeptidase A
[1] = target: T2, Angiotensin-converting enzyme (Rattus norvegicus, UniProt P47820); test: Binding affinity against Angiotensin I converting enzyme from rat testis
T2 sequence (P47820 whole entry): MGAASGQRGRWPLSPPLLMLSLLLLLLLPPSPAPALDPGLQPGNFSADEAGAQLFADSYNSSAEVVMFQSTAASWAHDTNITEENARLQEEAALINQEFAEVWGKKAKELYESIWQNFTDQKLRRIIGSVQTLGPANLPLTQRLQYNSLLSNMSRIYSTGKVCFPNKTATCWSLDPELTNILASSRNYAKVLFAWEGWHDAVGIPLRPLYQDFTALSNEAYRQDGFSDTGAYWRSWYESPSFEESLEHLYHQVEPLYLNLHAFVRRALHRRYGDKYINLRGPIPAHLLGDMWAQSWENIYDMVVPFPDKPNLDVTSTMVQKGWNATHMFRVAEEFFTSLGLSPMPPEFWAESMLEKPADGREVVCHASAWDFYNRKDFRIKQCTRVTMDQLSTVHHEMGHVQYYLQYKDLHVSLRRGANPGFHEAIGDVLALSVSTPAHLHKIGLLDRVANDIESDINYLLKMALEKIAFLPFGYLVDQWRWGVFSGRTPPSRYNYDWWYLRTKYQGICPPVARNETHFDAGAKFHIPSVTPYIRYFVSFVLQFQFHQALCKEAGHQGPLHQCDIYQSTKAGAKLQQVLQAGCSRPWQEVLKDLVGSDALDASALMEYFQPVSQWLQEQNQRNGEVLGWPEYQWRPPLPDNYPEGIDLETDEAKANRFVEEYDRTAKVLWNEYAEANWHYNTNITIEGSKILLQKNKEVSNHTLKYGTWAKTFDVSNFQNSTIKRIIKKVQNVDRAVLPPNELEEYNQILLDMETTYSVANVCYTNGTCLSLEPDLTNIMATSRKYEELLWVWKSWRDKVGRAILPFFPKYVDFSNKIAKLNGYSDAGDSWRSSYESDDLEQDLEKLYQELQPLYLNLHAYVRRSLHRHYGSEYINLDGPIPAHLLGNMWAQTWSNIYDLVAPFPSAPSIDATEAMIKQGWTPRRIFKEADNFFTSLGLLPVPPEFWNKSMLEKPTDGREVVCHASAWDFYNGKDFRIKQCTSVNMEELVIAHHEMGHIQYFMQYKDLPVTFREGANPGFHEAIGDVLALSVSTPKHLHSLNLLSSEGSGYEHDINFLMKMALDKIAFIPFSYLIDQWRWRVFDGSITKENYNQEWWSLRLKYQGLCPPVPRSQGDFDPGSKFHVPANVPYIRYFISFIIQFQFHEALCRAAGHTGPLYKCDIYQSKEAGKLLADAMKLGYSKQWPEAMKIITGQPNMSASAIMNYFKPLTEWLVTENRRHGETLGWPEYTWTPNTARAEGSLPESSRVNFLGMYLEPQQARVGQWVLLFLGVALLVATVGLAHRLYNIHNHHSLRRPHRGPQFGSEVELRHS

Neprilysin = target: T3, Neprilysin (Oryctolagus cuniculus, UniProt P08049); test: Binding affinity against NEP from rabbit kidney(neutral endopeptidase)
T3 sequence (P08049 whole entry): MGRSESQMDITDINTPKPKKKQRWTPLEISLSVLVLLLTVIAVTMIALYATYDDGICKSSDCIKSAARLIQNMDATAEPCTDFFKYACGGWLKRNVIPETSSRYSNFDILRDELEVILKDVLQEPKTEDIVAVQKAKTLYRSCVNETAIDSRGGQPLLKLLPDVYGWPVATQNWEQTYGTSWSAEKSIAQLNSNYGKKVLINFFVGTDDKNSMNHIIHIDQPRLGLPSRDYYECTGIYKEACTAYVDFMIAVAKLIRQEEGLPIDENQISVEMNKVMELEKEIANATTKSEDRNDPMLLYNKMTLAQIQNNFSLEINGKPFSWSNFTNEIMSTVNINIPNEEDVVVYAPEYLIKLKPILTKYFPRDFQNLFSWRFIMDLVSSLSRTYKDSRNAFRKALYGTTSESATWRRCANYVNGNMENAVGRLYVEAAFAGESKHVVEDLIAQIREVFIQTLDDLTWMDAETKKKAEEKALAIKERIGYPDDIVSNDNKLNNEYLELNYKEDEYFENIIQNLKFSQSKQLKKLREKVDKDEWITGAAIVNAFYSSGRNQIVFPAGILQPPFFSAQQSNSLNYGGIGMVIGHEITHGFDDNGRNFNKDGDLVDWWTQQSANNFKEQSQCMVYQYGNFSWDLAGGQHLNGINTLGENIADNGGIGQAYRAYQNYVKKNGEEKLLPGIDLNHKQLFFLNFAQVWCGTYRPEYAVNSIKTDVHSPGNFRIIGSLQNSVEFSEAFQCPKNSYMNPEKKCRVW

Chain of Glutamyl aminopeptidase (Q07075 whole entry): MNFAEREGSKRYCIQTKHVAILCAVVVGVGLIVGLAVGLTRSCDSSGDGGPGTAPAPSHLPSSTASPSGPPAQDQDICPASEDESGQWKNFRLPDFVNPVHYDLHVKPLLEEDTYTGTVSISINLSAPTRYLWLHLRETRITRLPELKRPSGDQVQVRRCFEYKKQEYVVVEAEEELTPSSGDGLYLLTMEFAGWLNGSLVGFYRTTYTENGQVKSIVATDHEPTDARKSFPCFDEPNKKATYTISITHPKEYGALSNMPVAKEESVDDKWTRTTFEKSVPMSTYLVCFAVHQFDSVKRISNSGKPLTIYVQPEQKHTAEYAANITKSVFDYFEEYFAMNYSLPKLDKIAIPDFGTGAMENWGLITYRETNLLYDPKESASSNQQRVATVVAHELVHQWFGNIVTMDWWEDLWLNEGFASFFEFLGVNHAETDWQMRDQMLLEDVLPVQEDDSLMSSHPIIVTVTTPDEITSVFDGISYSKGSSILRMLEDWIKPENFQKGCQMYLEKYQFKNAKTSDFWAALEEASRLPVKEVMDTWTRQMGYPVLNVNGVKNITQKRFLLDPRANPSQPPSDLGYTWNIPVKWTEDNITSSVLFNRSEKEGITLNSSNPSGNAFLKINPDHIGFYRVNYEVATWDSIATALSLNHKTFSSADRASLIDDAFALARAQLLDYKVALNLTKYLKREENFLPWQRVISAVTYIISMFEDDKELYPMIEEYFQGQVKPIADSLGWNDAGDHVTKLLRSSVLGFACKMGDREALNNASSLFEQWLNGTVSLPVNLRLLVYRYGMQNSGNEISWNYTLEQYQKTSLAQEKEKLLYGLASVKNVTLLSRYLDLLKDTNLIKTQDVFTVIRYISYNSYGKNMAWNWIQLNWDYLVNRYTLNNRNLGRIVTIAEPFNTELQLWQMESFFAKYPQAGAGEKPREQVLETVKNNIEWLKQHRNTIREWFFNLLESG

Structure (SMILES) | Ki (Aminopeptidase N) | Ki (Glutamyl aminopeptidase) | Ki [1] | Ki (Neprilysin)
CC[C@@H](C)[C@H](NC(=O)[C@@H](S)[C@H](N)CCC(=O)O)C(=O)N[C@@H](CC(=O)O)C(=O)O | > 10000 nM | 267 nM |  | 
CC[C@@H](C)[C@H](NC(=O)[C@H](S)[C@H](N)CCC(=O)O)C(=O)N[C@@H](CC(=O)O)C(=O)O | > 10000 nM | 3.56 nM | 1800 nM | 4 nM
CC[C@@H](C)[C@H](NCC(S)C(N)CCS(N)(=O)=O)C(=O)N[C@@H](CC(=O)O)C(=O)O (some centres undefined) | 3400 nM | 51 nM |  | 
NC(CCS(N)(=O)=O)C(S)C(=O)N[C@@H](Cc1ccc(O)cc1)C(=O)N[C@@H](CC(=O)O)C(=O)O (some centres undefined) | 7000 nM | 150 nM |  | 
CC[C@@H](C)[C@H](NC(=O)[C@H](S)[C@H](N)CCS(=O)(=O)O)C(=O)N[C@H](CC(=O)O)C(=O)O | > 100000 nM | 5.36 nM |  | 
CC[C@@H](C)[C@H](NC(=O)[C@@H](S)[C@H](N)CCS(=O)(=O)O)C(=O)N[C@@H](CC(=O)O)C(=O)O | > 100000 nM | 53 nM |  | 
CC[C@@H](C)[C@H](NC(=O)[C@@H](S)[C@H](N)CCS(=O)(=O)O)C(=O)N[C@@H](CS(=O)(=O)O)C(=O)O |  | 83.3 nM |  | 
CC[C@@H](C)[C@H](NC(=O)[C@@H](S)[C@@H](N)CCC(=O)O)C(=O)N[C@@H](CC(=O)O)C(=O)O | 3900 nM | 16 nM |  | 
CC[C@@H](C)[C@H](NC(=O)[C@@H](S)[C@H](N)CCP(=O)(O)O)C(=O)N[C@@H](CC(=O)O)C(=O)O | > 10000 nM | 910 nM |  | 
CC[C@@H](C)[C@H](NC(=O)[C@@H](S)[C@@H](N)CCS(=O)(=O)O)C(=O)N[C@@H](CC(=O)O)C(=O)O | > 100000 nM | 50 nM |  | 
CC[C@@H](C)[C@H](NC(=O)C(S)C(N)CCS(N)(=O)=O)C(=O)N[C@@H](CC(=O)O)C(=O)O (some centres undefined) | 28000 nM | 80 nM |  | 
CC[C@@H](C)[C@H](NC(=O)[C@@H](S)[C@H](N)CCS(=O)(=O)O)C(=O)N1CCC(C(=O)O)[C@@H]1C(=O)O (some centres undefined) |  | 240 nM |  | 
CC[C@@H](C)[C@H](NC(=O)[C@@H](S)[C@H](N)CCS(=O)(=O)O)C(=O)N1CCC(C(=O)O)[C@H]1C(=O)O (some centres undefined) |  | 110 nM |  | 
CC[C@@H](C)[C@H](NC(=O)[C@@H](S)[C@H](N)CCS(=O)(=O)O)C(=O)N[C@@H](CC(=O)O)C(N)=O | 51000 nM | 470 nM |  | 
CC[C@@H](C)[C@H](NC(=O)[C@H](S)[C@H](N)CCP(=O)(O)O)C(=O)N[C@@H](CC(=O)O)C(=O)O | > 10000 nM | 12 nM | 2200 nM | 5.4 nM
N[C@H](CCS(=O)(=O)O)[C@@H](S)C(=O)N[C@@H](Cc1ccc(O)cc1)C(=O)N[C@@H](CCS(=O)(=O)O)C(=O)O |  | 9.3 nM | 660 nM | 520 nM
N[C@H](CCS(=O)(=O)O)[C@H](S)C(=O)N[C@@H](Cc1ccc(O)cc1)C(=O)N[C@@H](CC(=O)O)C(=O)O | 48000 nM | 27 nM |  | 

Structure (SMILES) | Ki (Aminopeptidase N) | Ki (Glutamyl aminopeptidase) | Ki [1] | Ki (Neprilysin)
CC[C@@H](C)[C@H](NC(=O)[C@H](S)[C@H](N)CCS(=O)(=O)O)C(=O)N1CCC(C(=O)O)[C@H]1C(=O)O (some centres undefined) |  | 0.873 nM | 259 nM | 219 nM
CC[C@H](C)[C@@H](NC(=O)[C@@H](S)[C@H](N)CCS(=O)(=O)O)C(=O)N[C@@H](CC(=O)O)C(=O)O | > 100000 nM | 292 nM |  | 
CC[C@@H](C)[C@H](NC(=O)[C@@H](S)[C@H](N)CCS(=O)(=O)O)C(N)=O | > 10000 nM | 4200 nM |  | 
CC[C@@H](C)[C@H](NC(=O)[C@H](S)[C@H](N)CCS(=O)(=O)O)C(=O)O | > 10000 nM | 40 nM |  | 
CC[C@@H](C)[C@H](NC(=O)[C@H](S)[C@H](N)CCS(=O)(=O)O)C(=O)N[C@@H](CC(=O)O)C(N)=O | 44000 nM | 15 nM |  | 
CC[C@@H](C)[C@H](NC(=O)[C@H](S)[C@H](N)CCS(=O)(=O)O)C(=O)N1CCC(C(=O)O)[C@@H]1C(=O)O (some centres undefined) |  | 3.83 nM | 1090 nM | 520 nM
N[C@H](CCS(=O)(=O)O)[C@H](S)C(=O)N[C@@H](Cc1ccc(O)cc1)C(=O)N[C@@H](CCS(=O)(=O)O)C(=O)O |  | 73.3 nM |  | 
CC[C@H](C)[C@@H](NC(=O)[C@H](S)[C@H](N)CCS(=O)(=O)O)C(=O)N[C@@H](CC(=O)O)C(=O)O | > 100000 nM | 14.7 nM |  | 
CC[C@@H](C)[C@H](NC(=O)[C@H](S)[C@H](N)CCS(=O)(=O)O)C(=O)N[C@@H](CS(=O)(=O)O)C(=O)O |  | 3.6 nM | 1210 nM | 17 nM
CC[C@@H](C)[C@H](NC(=O)[C@H](S)[C@@H](N)CCS(=O)(=O)O)C(=O)N[C@@H](CC(=O)O)C(=O)O | 23000 nM | 20 nM |  | 
CC[C@@H](C)[C@H](NC(=O)[C@H](S)[C@@H](N)CCC(=O)O)C(=O)N[C@@H](CC(=O)O)C(=O)O | 120 nM | 13 nM |  | 
CC[C@@H](C)[C@H](NC(=O)[C@H](S)[C@H](N)CCS(=O)(=O)O)C(=O)N[C@@H](CC(=O)O)C(=O)O | > 100000 nM | 3.2 nM | 1200 nM | 22 nM
CC[C@@H](C)[C@H](NC(=O)[C@@H](S)[C@H](N)CCS(=O)(=O)O)C(=O)O | > 10000 nM | 1200 nM |  | 
CC[C@@H](C)[C@H](NC(=O)[C@@H](S)[C@H](N)CCS(=O)(=O)O)C(=O)N[C@H](CC(=O)O)C(=O)O | > 100000 nM | 283 nM |  | 
CC[C@@H](C)[C@H](NC(=O)[C@H](S)[C@H](N)CCS(=O)(=O)O)C(N)=O | > 10000 nM | 145 nM |  | 
N[C@H](CCS(=O)(=O)O)[C@@H](S)C(=O)N[C@@H](Cc1ccc(O)cc1)C(=O)N[C@@H](CC(=O)O)C(=O)O | 31000 nM | 4.3 nM | 1800 nM | 34 nM
